Where two headings read alike, the source gives them in different places.
Experiments:
Type in all cases: cell-based, HCV
HCVcc GT2a = assay: Synergistic antiviral potency against HCVcc (AZ-628 with direct-acting antivirals); details: for EC50: read-out: EC50 alone
Experimental: The tested RAF inhibitors were evaluated for an ability to synergize with other current, late stage or marketed direct-acting antivirus (DAAs).

HCVpp, Genotype 1b = assay: microbe, parasite or virus in culture
HCVcc, Genotype 2a = assay: HCVcc inhibitor assay in Huh 7.5 cells, Renilla luciferase readout; details: Hepatitis C virus, Huh-7.5.1
Experimental: The secondary screen, for anti-HCV activity utilized HCVcc, a lab-adapted full infection cycle virus, to evaluate the effect of Raf inhibition on viral entry. The HCVcc inhibitor assay uses Huh 7.5 cells and HCVcc containing the luciferase gene generated from pJ6/JFH1-p7Rluc. Briefly cells are plated one day prior to assay. On the day of assay, media is aspirated. The cells are pre-treated with 100 μl of 1X compound. After 1 h pretreatment, compound containing media is aspirated, HCVcc diluted 1x compound is added to each well. Toxicity plates receive only the test compound in tissue culture medium. […] Compound cytotoxicity is assessed by MTS (CellTiter® 96 Reagent, Promega, Madison Wis.) dye reduction. The % reduction in viral entry is determined and reported. […]
The plasmids carrying HCV J6/JFH1 genome, or chimeric mCon1/JFH1 or mH77/JFH1 genome and Rluc reporter gene were kindly provided by Dr. Charles Rice at Rockefeller University. […] HCVcc infectivity was determined by TCID50 assay. […] The number of HCV positive cells was counted. The TCID50 was calculated according to the Reed and Muench method.
The format of the test plate has been standardized by SOUTHERN. […] Samples were evaluated for antiviral efficacy with triplicate measurements using 6 concentrations at half-log (or other) dilutions in order to determine EC50 values and cellular cytotoxicity, if detectable. […]

[1] = Genotype 1b, luciferase tagged HCV GT-1b pseudotyped virus, Huh 7.5.1, ≧80% confluent cells, MOI 0.02, read-out: EC50

Work on Cc1ccc(NC(=O)c2cccc(C(C)(C)C#N)c2)cc1Nc1ccc2ncn(C)c(=O)c2c1 [AZ-628] yielded an inhibition at 0.025 µM (HCVcc GT2a; Hepatitis C virus, GT2A, IkT-064 25 nM, GS-7977 0 nm) of 0%, an inhibition at 0.05 µM (HCVcc GT2a; Hepatitis C virus, GT2A, IkT-064 50 nM, GS-7977 0 nm) of 0% and an inhibition at 0.1 µM (HCVcc GT2a; Hepatitis C virus, GT2A, IkT-064 100 nM, GS-7977 0 nm) of 0%. The inhibition at 0.2 µM (HCVcc GT2a; Hepatitis C virus, GT2A, IkT-064 200 nM, GS-7977 0 nm) was 5.15%, the inhibition at 0.4 µM (HCVcc GT2a; Hepatitis C virus, GT2A, IkT-064 400 nM, GS-7977 0 nm) was 73.4% and the EC50 (HCVcc GT2a; Hepatitis C virus) was 300 nM. For the same molecule, the “% antiviral inhibition” value (HCVcc GT2a; IkT-064 25 nM, BMS-790052 0 pM) was 2.83%, the “% antiviral inhibition” value (HCVcc GT2a; IkT-064 200 nM, BMS-790052 0 pM) was 17.39% and the “% antiviral inhibition” value (HCVcc GT2a; IkT-064 400 nM, BMS-790052 0 pM) was 74.25%. The EC50 (HCVpp, Genotype 1b; Hepatitis C virus, Huh-7.5.1) was 420 nM and the EC50 (HCVcc, Genotype 2a) was 120 nM.

For COC(=O)N[C@H](C(=O)N1CCC[C@H]1c1ncc(-c2ccc(-c3ccc(-c4cnc([C@@H]5CCCN5C(=O)[C@@H](NC(=O)OC)C(C)C)[nH]4)cc3)cc2)[nH]1)C(C)C [BMS-790052], the EC50 (HCVcc GT2a; Hepatitis C virus, Genotype 2a, single drug) was 0.1 nM, the “% antiviral inhibition” value (HCVcc GT2a; IkT-064 0 nM, BMS-790052 0.781 pM) was 0% and the “% antiviral inhibition” value (HCVcc GT2a; IkT-064 0 nM, BMS-790052 1.563 pM) was 0%. The “% antiviral inhibition” value (HCVcc GT2a; IkT-064 0 nM, BMS-790052 3.125 pM) was 8.7%, the “% antiviral inhibition” value (HCVcc GT2a; IkT-064 0 nM, BMS-790052 6.25 pM) was 8.72% and the “% antiviral inhibition” value (HCVcc GT2a; IkT-064 0 nM, BMS-790052 12.5 pM) was 17.27%. The “% antiviral inhibition” value (HCVcc GT2a; IkT-064 0 nM, BMS-790052 25 pM) was 19.54%, the “% antiviral inhibition” value (HCVcc GT2a; IkT-064 0 nM, BMS-790052 50 pM) was 33.86% and the “% antiviral inhibition” value (HCVcc GT2a; IkT-064 0 nM, BMS-790052 100 pM) was 59.54%.

For CC(C)OC(=O)[C@H](C)N[P@](=O)(OC[C@H]1O[C@@H](n2ccc(=O)[nH]c2=O)[C@](C)(F)[C@@H]1O)Oc1ccccc1 [GS-7977], the EC50 (HCVcc GT2a; Genotype 2a, single drug) was 250 nM, the “Fold Synergy” value (HCVcc GT2a; Genotype 2a, with AZ-628) was 5 and the “% antiviral inhibition” value (HCVcc GT2a; IkT-064 0 nM, GS-7977 1.563 nm) was 0%. The “% antiviral inhibition” value (HCVcc GT2a; IkT-064 0 nM, GS-7977 3.125 nm) was 0%, the “% antiviral inhibition” value (HCVcc GT2a; IkT-064 0 nM, GS-7977 6.25 nm) was 0% and the “% antiviral inhibition” value (HCVcc GT2a; IkT-064 0 nM, GS-7977 12.5 nm) was 0%. For the same molecule, the “% antiviral inhibition” value (HCVcc GT2a; IkT-064 0 nM, GS-7977 25 nm) was 2.65%, the “% antiviral inhibition” value (HCVcc GT2a; IkT-064 0 nM, GS-7977 50 nm) was 11.54% and the “% antiviral inhibition” value (HCVcc GT2a; IkT-064 0 nM, GS-7977 100 nm) was 21.51%. The “% antiviral inhibition” value (HCVcc GT2a; IkT-064 0 nM, GS-7977 200 nm) was 44.74%.

In the case of CC(C)(C)c1nc(-c2cccc(NS(=O)(=O)c3c(F)cccc3F)c2F)c(-c2ccnc(N)n2)s1 [GSK2118436/dabrafinib], the EC50 (HCVpp, Genotype 1b; [1]) is reported as > 5000 nM.

Molecule Cn1c(Nc2ccc(C(F)(F)F)cc2)nc2cc(Oc3ccnc(-c4ncc(C(F)(F)F)[nH]4)c3)ccc21 [Raf265] has an EC50 (HCVpp, Genotype 1b; Hepatitis C virus, Huh-7.5.1) of 890 nM and an EC50 (HCVcc, Genotype 2a) of 1050 nM.

CCCS(=O)(=O)Nc1ccc(F)c(C(=O)c2c[nH]c3ncc(-c4ccc(Cl)cc4)cc23)c1F [Zelboraf/PLX4032] was tested, and the EC50 (HCVpp, Genotype 1b; [1]) was > 5000 nM.

For CNC(=O)c1cc(Oc2ccc(NC(=O)Nc3ccc(Cl)c(C(F)(F)F)c3)cc2)ccn1 [sorafenib], the EC50 (HCVpp, Genotype 1b; Hepatitis C virus, Huh-7.5.1) was 1810 nM.
